Experimental data taken from patent publication US10987371B2 (priority 2017, dated 2021).
pEC50: −log10 of the molar value.

Experiments:
Ebola = conditions: mouse, in vivo; cited from earlier work
ZIKV PLCal_ZV [1] = format: cell-based
[2] = human
in vivo = conditions: male, C57BL/6, mouse
[3] = tested on: ZIKV nonstructural protein 1 (NS1); format: cell-based
[4] = in vivo
ZIKV PLCal_ZV [5] = experiment: microbe, parasite or virus in culture; format: cell-based; conditions: Zika virus, Vero
ZIKV PRVABC59 isolate = conditions: mouse, in vivo
Vero E6 cells = conditions: African green monkey

Structure (SMILES): CCC(CC)COC(=O)[C@H](C)N[P@](=O)(OC[C@H]1O[C@@](C#N)(c2ccc3c(N)ncnn23)[C@H](O)[C@@H]1O)Oc1ccccc1 [GS-5734]
- protection in mice (Ebola): 100%

Structure (SMILES): O=c1c(O[C@@H]2O[C@H](CO)[C@@H](O)[C@H](O)[C@H]2O)c(-c2ccc(O)c(O)c2)oc2cc(O)cc(O)c12 [Q3G, Quercetin-3-β-O-D-glucoside]
- concentration at which complete inhibition of cytopathic effects (CPE) was observed (ZIKV PLCal_ZV [1]): 6.9 µM
- calculated maximum recommended starting dose (MRSD) [2]: 0.813 mg/kg
- daily dose to start clinical trials [2]: 56.91 mg
- NOAEL (in vivo): 100 mg/kg
- concentrations with statistically significant reductions in NS1 [3]: ≥ 0.6 µM
- time within which all mice died ([4]; male, C57BL/6, mouse, ip, 400 mg/kg): ≤ 2 days
- survival and signs of toxicity ([4]; mouse): without signs of toxicity
- deaths ([4]; mouse, ip, 200 mg/kg): One mouse
- weight loss of the surviving mice ([4]; mouse, ip, 200 mg/kg): ~15%
- pEC50 (ZIKV PLCal_ZV [5]; read-out: EC50 against ZIKV PLCal_ZV): 5.89 to 5.92
- EC90 (ZIKV PLCal_ZV [5]; read-out: EC90 against ZIKV PLCal_ZV): ~1500 nM
- average weight loss (ZIKV PRVABC59 isolate): ~20%
- animals surviving the infection (ZIKV PRVABC59 isolate; ip, 50 mg/kg): 50%
- cell viability (Vero E6 cells): 100%

Structure (SMILES): NC(=O)c1nc(F)c[nH]c1=O [T-705]
- protection in IFNAR-/- mice (Ebola): 100%

Structure (SMILES): CCN(CC)CCOc1ccc(C(=C(Cl)c2ccccc2)c2ccccc2)cc1 [clomiphene]
- protection of mice (Ebola): 90%

Structure (SMILES): CN(C)CCOc1ccc(/C(=C(/CCCl)c2ccccc2)c2ccccc2)cc1 [toremifene]
- protection of mice (Ebola): 50%
